Laboratory results as given in patent US20220184071A1, “GEPOTIDACIN FOR USE IN THE TREATMENT OF BACTERIAL URINARY TRACT INFECTIONS” (GlaxoSmithKline Intellectual Property Development Limited, priority 2019, published 2022).
Values after ≈ are worked out from the molar mass of the structure shown. Values joined by “and” are separate entries in the source; they are usually repeats but may differ in a detail not shown here. Equal entries are not always repeated. “Also recorded” adds a separate entry of the source. Where two headings read alike, the source gives them in different places.

Experiments:
[1] = test system: E. coli ALL; assay: Neutropenic mouse kidney infection (pyelonephritis/UTI) model PK/PD; type: in vivo; details: Strain ALL
Protocol: PK and PD studies using gepotidacin were conducted in murine (male CD-1 mice) thigh and kidney infections. The administered doses ranged from 1 to 200 mg/kg SC every 6 hours starting 1h post infection. Infected tissues were evaluated for bacterial burden at 24 h post infection (baseline controls at 1 h post infection).
Efficacy was determined against E. coli ALL, 997577, ATCC25922, IR5 and NCTC13441 (MICs of 1 to 4 μg/mL) in thigh-infected neutropenic (I−) mice and against E. coli ALL in kidney-infected immunocompetent (I+) and I− mice. The PopPK model was used to determine GEP exposures associated with efficacy. PK-PD analyses were conducted using Phoenix WinNonLin 6.3 (Pharsight). The change in login colony forming units (CFU) from baseline were correlated with free drug (f) AUC:MIC using an inhibitory model from the Phoenix library, and model parameter values for each isolate were used to calculate the plasma fAUC:MIC associated with stasis, 1- or 2-login reductions in CFU.
PD studies were conducted using thigh and/or kidney infection models in neutropenic or competent mice (N=5/group). Mice were infected with a bacterial suspension in log phase: 100 μL in the left thigh muscle or 50 μL in each of both kidneys (100 μl total). Final inocula across all isolates were 6.0 to 7.0 login CFU/mouse. Dose-ranging studies were conducted with 5 isolates (see Table 1). Starting 1 hr after infection, GEP was given SC (0.2 mL/mouse) at discrete doses of 1-200 mg/kg every 6 hours (q6) for a 24-hour period (4 doses in total). Mice were euthanized 24 hr after start of therapy (6 hr after the last dose), and infected thighs or kidneys were processed to determine viable bacterial counts (CFU). Baseline CFU were obtained from untreated mice at 1 hr post infection and growth control CFU from saline-treated mice at 24 hr.
NCA analyses were conducted with the simulated data. […]

[2] = test system: Providencia stuartii; assay: MIC by CLSI broth microdilution, isolates from UTI patients (Example 7); type: cell-based; details: n=1
Protocol: (§1) Gepotidacin was tested against the following organisms obtained from UTI patients, in serial two-fold dilutions. The minimum inhibitory concentration (MIC) was determined by broth microdilution according to CLSI methods.

[3] = test system: Citrobacter amalonaticus; assay: as above; type: cell-based; details: n=1
Protocol: as §1

[4] = test system: Acidovorax temperans; assay: as above; type: cell-based; details: n=1
Protocol: as §1

[5] = test system: All Qualifying Uropathogens; assay: Phase IIa microbiological response (micro-ITT population); type: in vivo, human; details: for Microbiological Failure, n (%) (95% Confidence Interval): n 8
[6] = Plasma and urine pharmacokinetics, phase IIa study in women with acute uUTI; type: in vivo, human; details: for Cmax: read-out: Plasma Cmax, Geometric Mean (% CVb); for AUC: po, uUTI patients, read-out: urine AUC[0-tau]
Protocol: Bronchoalveolar lavage samples were collected to determine gepotidacin exposures in ELF and AM following a single 1000 mg IV infusion over 2 hours to healthy subjects. Saliva exposure was assessed in healthy volunteers following 1500 mg oral single dose. Gepotidacin exposures in urine was assessed in women with acute uUTI following 1500 mg BID oral doses for 5 days.
This phase IIa single center study evaluated the safety, tolerability, pharmacokinetics, and efficacy of oral gepotidacin 1500 mg BID for 5 days in female subjects with acute cystitis. Clean catch mid-stream urine specimens were obtained for quantitative culture by standard methods. Urine samples were taken from all participants pre-treatment (baseline) and at all post-baseline visits. All urine samples were sent to a central laboratory (PPD Global Clinical Laboratories, Highland Heights, Ky., USA) for Gram stain, quantitative culture, pathogen identification and susceptibility testing. See FIG. 1 for participant disposition and study outline.
Serial blood and urine PK sampling were performed for the first dose of study treatment on Day 1 and for the time-matched dose on Day 4. Participants took all doses of gepotidacin with food and remained in the clinic to complete a total of 10 doses. Participants were instructed to return for the TOC (Day 10 to 13) and Follow-up (Day 28±3) Visits.
For pharmacokinetic assessments, serial blood and urine samples for the assessment of gepotidacin PK concentrations were collected out to 12 hours post dose (T) following the morning dose on Days 1 and 4. CT (trough) concentrations were collected on Days 1-5. PK concentrations of gepotidacin in plasma and urine were measured using a validated LC-MS/MS bio-analytical assay.

[7] = test system: viridans streptococci; assay: MIC by CLSI broth microdilution, Example 5 Method 1; type: cell-based; details: 105 isolates
Protocol: Gepotidacin was tested against 101 coagulase-negative staphylococci and 105 viridans streptococci in serial two-fold dilutions and the minimum inhibitory concentration (MIC) was determined as the lowest concentration of the compound that inhibited visible growth. All of the clinical isolates were collected in 2009-2012 from patient infections from North America, Europe, Latin America and Asia-Pacific medical centers and were mainly obtained from patients with documented nosocomial and community-acquired respiratory tract infections, bloodstream infections and skin and skin structure infections. Ceftriaxone, meropenem, penicillin, levofloxacin, moxifloxacin and linezolid were included as comparators when testing the viridans streptococci isolates. Oxacillin, levofloxacin, moxifloxacin and linezolid, were included as comparators when testing the coagulase-negative staphylococci isolates. MICs were determined by broth microdilution according to CLSI methods.

[8] = test system: Proteus hauseri and Proteus peneri; assay: MIC by CLSI agar dilution, Example 1 Method 2; type: cell-based; details: at least one strain of every organism listed
Protocol: Antimicrobial activity was determined in a second study by […] using the CLSI recommended procedure in serial two-fold dilutions and the minimum inhibitory concentration (MIC) was determined as the lowest concentration of the compound that inhibited visible growth. Amikacin, ceftazidime, colistin, fosfomycin, levofloxacin, meropenem, nitrofurantoin and trimethoprim-sulfamethoxazole were included as comparators. MICs for and comparators were determined by agar dilution according CLSI methods. In addition, gepotidacin and all of the aforementioned comparators identified in this method were evaluated against gram-negative aerobic organisms selected from Proteus hauseri and Proteus […]. Gepotidacin was tested in at least one exemplified salt.

Structure (SMILES): O=c1ccc2ncc(=O)n3c2n1C[C@H]3CN1CCC(NCc2cc3c(cn2)OCCC3)CC1 [gepotidacin, (2R)-2-({4-[(3,4-dihydro-2H-pyrano[2,3-c]pyridin-6-ylmethyl)amino]-1-piperidinyl}methyl)-1,2-dihydro-3H,8H-2a,5,8a-triazaacenaphthylene-3,8-dione]
- Daily fAUC/MIC for 1-log Drop [1]: 8.7
- Daily fAUC/MIC for 2-log Drop [1]: 15.6
- Daily fAUC/MIC for Stasis [1]: 4.3
- MIC [2]: 32 µg/mL (≈ 71.3 µM)
- MIC [3]: 2 µg/mL (≈ 4.46 µM)
- MIC [4]: 1 µg/mL (≈ 2.23 µM)
- Microbiological Failure, n (%) (95% Confidence Interval) ([5]; Follow-up Visit): 2 (25) (3-65)
- Microbiological Failure, n (%) (95% Confidence Interval) ([5]; TOC Visit): 1 (13) (<1-53)
- reduction in susceptibility to gepotidacin (≥4-fold increase in MIC) ([5]; baseline uropathogen vs same uropathogen at subsequent visits): no evidence of reduction in susceptibility; also recorded: No participants developed post-treatment uropathogens with reduced susceptibility
- accumulation in plasma following BID dosing (based on AUC) ([6]; 1500 mg BID oral): 1.4 fold
- dose excreted in urine over the 12-hour dosing interval ([6]; Day 1): Approximately 20%
- Plasma CT, Geometric Mean (% CVb) ([6]; Day 4): 0.851 (41.1) [n = 21] μg/mL
- Urine CT, Geometric Mean (% CVb) ([6]; Day 4): 327 (248.7) [n = 21] μg/mL
- dose excreted in urine over the 12-hour dosing interval ([6]; Day 4): 31%
- Steady state attained by ([6]; based on trough plasma concentrations): ≤ 3 days
- concentration at 12 h ([6]; female, human, in vivo, over the 12-hour dosing interval, 1500 mg BID oral, read-out: minimum / steady-state trough urine concentrations (remained above a MIC of)): > 4000 ng/mL
- AUC(0-t) ([6]; female, human, plasma, oral, 1500 mg, Day 1, read-out: Plasma AUC(0-T), Geometric Mean (% CVb)): 20.2 µg·h/mL
- Cmax ([6]; female, human, plasma, oral, 1500 mg, Day 1): 5890 ng/mL
- AUC(0-t) ([6]; female, human, plasma, oral, 1500 mg, Day 4, read-out: Plasma AUC(0-T), Geometric Mean (% CVb)): 29.3 µg·h/mL
- Cmax ([6]; female, human, plasma, oral, 1500 mg, Day 4): 8440 ng/mL
- Tmax ([6]; female, human, plasma, oral, 1500 mg, plasma, Day 1, read-out: median Tmax): 1.5 h
- Tmax ([6]; female, human, plasma, oral, 1500 mg, plasma, Day 4, read-out: median Tmax): 1.92 h
- Tmax ([6]; female, human, plasma, oral, 1500 mg, plasma, Days 1 and 4, read-out: median Tmax values): 1.5 to 1.92 h
- half-life ([6]; female, human, plasma, oral, 1500 mg, read-out: effective elimination half-life (converted)): 6.6 h
- AUC(0-t) ([6]; female, human, urine, oral, 1500 mg, Day 1, read-out: Urine AUC(0-T), Geometric Mean (% CVb)): 3740 µg·h/mL
- AUC(0-t) ([6]; female, human, urine, oral, 1500 mg, Day 4, read-out: Urine AUC(0-T), Geometric Mean (% CVb)): 5970 µg·h/mL
- AUC(0-t) ([6]; female, human, urine, oral, 1500 mg, steady state, Day 4, read-out: Urinary AUC(0-24)): 11900 µg·h/mL
- Kp ([6]; female, human, urine, oral, 1500 mg, read-out: Steady-state urine exposures (AUC[0-24]) exceeded free plasma exposures by): ~300
- AUC ([6]; female, human, urine, 1500 mg, Day 1, 1500 mg BID oral): 3740 µg·h/mL
- AUC ([6]; female, human, urine, 1500 mg, Day 4, 1500 mg BID oral): 5970 µg·h/mL
- Urine Ctau ([6]; from Day 3 onwards, 1500 mg BID oral): 322 to 352 µg/mL
- renal excretion ([6]; healthy subjects (comparison)): 7.5 % of dose
- free plasma AUC(0-24) ([6]; steady state, Day 4): 39.4 µg·h/mL and 39.3 µg·h/mL
- renal excretion ([6]; uUTI participants): 20 % of dose
- MIC90 [7]: 0.5 µg/mL (≈ 1.11 µM)
- MIC [8]: ≤ 8 µg/mL
